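At the GI50, growth is halved. TGI marks complete inhibition of growth.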
How the values were obtained:
Assay in all cases: NCI anticancer screen, dose series, 384-well format
MDA-MB-231 breast = system: MDA-MB-231 breast
RXF 393 renal = system: RXF 393 renal
SK-MEL-2 melanoma = system: SK-MEL-2 melanoma
OVCAR-5 ovarian = system: OVCAR-5 ovarian
T-47D breast = system: T-47D breast
SK-MEL-5 melanoma = system: SK-MEL-5 melanoma
U251 glioblastoma = system: U251 glioblastoma
NCI-H460 NSCLC = system: NCI-H460 NSCLC
SF-539 CNS = system: SF-539 CNS
OVCAR-4 ovarian = system: OVCAR-4 ovarian
A498 renal = system: A498 renal
M14 melanoma = system: M14 melanoma
SNB-19 CNS = system: SNB-19 CNS
SW-620 colon = system: SW-620 colon
OVCAR-8 ovarian = system: OVCAR-8 ovarian
NCI-H23 lung = system: NCI-H23 lung
UACC-62 melanoma = system: UACC-62 melanoma
OVCAR-3 ovarian = system: OVCAR-3 ovarian
EKVX NSCLC = system: EKVX NSCLC
SNB-75 CNS = system: SNB-75 CNS
CCRF-CEM leukemia = system: CCRF-CEM leukemia
HCT-15 colon = system: HCT-15 colon
KM12 colon = system: KM12 colon
MOLT-4 leukemia = system: MOLT-4 leukemia
COLO 205 colon = system: COLO 205 colon
DU-145 prostate = system: DU-145 prostate
MDA-MB-435 melanoma = system: MDA-MB-435 melanoma
SF-268 CNS = system: SF-268 CNS
HS 578T breast = system: HS 578T breast
BT-549 breast = system: BT-549 breast
NCI-H226 lung = system: NCI-H226 lung
HL-60(TB) leukemia = system: HL-60(TB) leukemia
RPMI-8226 leukemia = system: RPMI-8226 leukemia
SK-OV-3 ovarian = system: SK-OV-3 ovarian
NCI-H522 lung = system: NCI-H522 lung
SK-MEL-28 melanoma = system: SK-MEL-28 melanoma
CAKI-1 renal = system: CAKI-1 renal
PC-3 prostate = system: PC-3 prostate
IGROV1 ovarian = system: IGROV1 ovarian
MCF7 breast = system: MCF7 breast
HOP-62 NSCLC = system: HOP-62 NSCLC
NCI-H322M lung = system: NCI-H322M lung
SN12C renal = system: SN12C renal
MDA-MB-468 breast = system: MDA-MB-468 breast
MALME-3M melanoma = system: MALME-3M melanoma
NCI/ADR-RES ovarian = system: NCI/ADR-RES ovarian
TK-10 renal = system: TK-10 renal
HOP-92 NSCLC = system: HOP-92 NSCLC
UACC-257 melanoma = system: UACC-257 melanoma
HT29 colon = system: HT29 colon
HCC-2998 colon = system: HCC-2998 colon
SR leukemia = system: SR leukemia
ACHN renal = system: ACHN renal

COc1ccc(N(C)c2nc(C)nc3ccccc23)cc1 was tested, and the GI50 (MDA-MB-231 breast) was < 0.01 µM, the TGI (MDA-MB-231 breast) was 23.9 µM and the GI50 (RXF 393 renal) was < 0.01 µM. The TGI (RXF 393 renal) was < 0.01 µM, the GI50 (SK-MEL-2 melanoma) was < 0.01 µM and the TGI (SK-MEL-2 melanoma) was < 0.01 µM. The GI50 (OVCAR-5 ovarian) was < 0.01 µM, the TGI (OVCAR-5 ovarian) was > 100 µM and the GI50 (T-47D breast) was < 0.01 µM. The TGI (T-47D breast) was 55.7 µM, the GI50 (SK-MEL-5 melanoma) was < 0.01 µM and the TGI (SK-MEL-5 melanoma) was < 0.01 µM. For the same compound, the GI50 (U251 glioblastoma) was < 0.01 µM, the TGI (U251 glioblastoma) was < 0.01 µM and the GI50 (NCI-H460 NSCLC) was < 0.01 µM. The TGI (NCI-H460 NSCLC) was < 0.01 µM, the GI50 (SF-539 CNS) was < 0.01 µM and the TGI (SF-539 CNS) was < 0.01 µM. For the same compound, the GI50 (OVCAR-4 ovarian) was < 0.01 µM, the TGI (OVCAR-4 ovarian) was 2.08 µM and the GI50 (A498 renal) was < 0.01 µM. For the same compound, the TGI (A498 renal) was 35.4 µM, the GI50 (M14 melanoma) was < 0.01 µM and the TGI (M14 melanoma) was < 0.01 µM. For the same compound, the GI50 (SNB-19 CNS) was < 0.01 µM, the TGI (SNB-19 CNS) was < 0.01 µM and the GI50 (SW-620 colon) was < 0.01 µM. For the same compound, the TGI (SW-620 colon) was > 100 µM, the GI50 (OVCAR-8 ovarian) was < 0.01 µM and the TGI (OVCAR-8 ovarian) was < 0.01 µM. The GI50 (NCI-H23 lung) was < 0.01 µM, the TGI (NCI-H23 lung) was < 0.01 µM and the GI50 (UACC-62 melanoma) was < 0.01 µM. For the same compound, the TGI (UACC-62 melanoma) was < 0.01 µM, the GI50 (OVCAR-3 ovarian) was < 0.01 µM and the TGI (OVCAR-3 ovarian) was < 0.01 µM. For the same compound, the GI50 (EKVX NSCLC) was < 0.01 µM, the TGI (EKVX NSCLC) was 25.1 µM and the GI50 (SNB-75 CNS) was < 0.01 µM. For the same compound, the TGI (SNB-75 CNS) was < 0.01 µM, the GI50 (CCRF-CEM leukemia) was < 0.01 µM and the TGI (CCRF-CEM leukemia) was < 0.01 µM. The GI50 (HCT-15 colon) was < 0.01 µM, the TGI (HCT-15 colon) was < 0.01 µM and the GI50 (KM12 colon) was < 0.01 µM. The TGI (KM12 colon) was 38.4 µM, the GI50 (MOLT-4 leukemia) was < 0.01 µM and the TGI (MOLT-4 leukemia) was < 0.01 µM. For the same compound, the GI50 (COLO 205 colon) was < 0.01 µM, the TGI (COLO 205 colon) was < 0.01 µM and the GI50 (DU-145 prostate) was < 0.01 µM. The TGI (DU-145 prostate) was 0.0328 µM, the GI50 (MDA-MB-435 melanoma) was < 0.01 µM and the TGI (MDA-MB-435 melanoma) was < 0.01 µM. For the same compound, the GI50 (SF-268 CNS) was < 0.01 µM, the TGI (SF-268 CNS) was < 0.01 µM and the GI50 (HS 578T breast) was < 0.01 µM. The TGI (HS 578T breast) was < 0.01 µM, the GI50 (BT-549 breast) was < 0.01 µM and the TGI (BT-549 breast) was < 0.01 µM. For the same compound, the GI50 (NCI-H226 lung) was < 0.01 µM, the TGI (NCI-H226 lung) was < 0.01 µM and the GI50 (HL-60(TB) leukemia) was < 0.01 µM. For the same compound, the TGI (HL-60(TB) leukemia) was < 0.01 µM, the GI50 (RPMI-8226 leukemia) was < 0.01 µM and the TGI (RPMI-8226 leukemia) was < 0.01 µM. The GI50 (SK-OV-3 ovarian) was < 0.01 µM, the TGI (SK-OV-3 ovarian) was < 0.01 µM and the GI50 (NCI-H522 lung) was < 0.01 µM. For the same compound, the TGI (NCI-H522 lung) was < 0.01 µM, the GI50 (SK-MEL-28 melanoma) was < 0.01 µM and the TGI (SK-MEL-28 melanoma) was < 0.01 µM. For the same compound, the GI50 (CAKI-1 renal) was < 0.01 µM, the TGI (CAKI-1 renal) was 0.288 µM and the GI50 (PC-3 prostate) was < 0.01 µM. For the same compound, the TGI (PC-3 prostate) was < 0.01 µM, the GI50 (IGROV1 ovarian) was < 0.01 µM and the TGI (IGROV1 ovarian) was > 100 µM. For the same compound, the GI50 (MCF7 breast) was < 0.01 µM, the TGI (MCF7 breast) was 0.184 µM and the GI50 (HOP-62 NSCLC) was < 0.01 µM. For the same compound, the TGI (HOP-62 NSCLC) was 5.64 µM, the GI50 (NCI-H322M lung) was < 0.01 µM and the TGI (NCI-H322M lung) was > 100 µM. For the same compound, the GI50 (SN12C renal) was < 0.01 µM, the TGI (SN12C renal) was 46 µM and the GI50 (MDA-MB-468 breast) was < 0.01 µM. For the same compound, the TGI (MDA-MB-468 breast) was < 0.01 µM, the GI50 (MALME-3M melanoma) was < 0.01 µM and the TGI (MALME-3M melanoma) was < 0.01 µM. The GI50 (NCI/ADR-RES ovarian) was < 0.01 µM, the TGI (NCI/ADR-RES ovarian) was < 0.01 µM and the GI50 (TK-10 renal) was < 0.01 µM. The TGI (TK-10 renal) was 90.3 µM, the GI50 (HOP-92 NSCLC) was < 0.01 µM and the TGI (HOP-92 NSCLC) was 0.0131 µM. For the same compound, the GI50 (UACC-257 melanoma) was < 0.01 µM, the TGI (UACC-257 melanoma) was 75.5 µM and the GI50 (HT29 colon) was < 0.01 µM. The TGI (HT29 colon) was 13 µM, the GI50 (HCC-2998 colon) was < 0.01 µM and the TGI (HCC-2998 colon) was < 0.01 µM. The GI50 (SR leukemia) was < 0.01 µM, the TGI (SR leukemia) was < 0.01 µM and the GI50 (ACHN renal) was < 0.01 µM. For the same compound, the TGI (ACHN renal) was 11.4 µM.

Source: PubChem BioAssay (NCI)
